# Test results as given in the NIST ThermoML archive (doi:10.1016/j.tca.2005.06.034).
# Numbers after ± are expanded uncertainties.
# Experiments:
# [1] = Crystal
# [2] = Molar enthalpy of transition or fusion; details: Crystal; DSC
compound,measurement,setting,value
"CN1N=N[NH+](N)C1N.O=[N+]([O-])[O-] (stereo not drawn) [1,5-diamino-4-methyl-4,5-dihydro-1H-tetrazol-1-ium nitrate]",mass density,"[1]; 571.3 K, 101.33 kPa, X-ray",1506 ± 2 kg/m3
same,Normal melting temperature,[1]; DTA,121.00 ± 1 °C
same,Molar enthalpy of transition or fusion,[2],5.16e-06 ± 1.7e-07 kcal/mol
